According to patent US20070122903A1, “AMNIOTIC FLUID DERIVED CELLS” (priority 2005, published 2007):

Legend:
Assay type in all cases: cell-based, human
[1] = system: Hes-1 expression (Notch pathway) in cell line AFCA007 (AF-I); experiment: Hes-1 expression by real-time PCR after notch pathway inhibition; conditions: range of concentrations, 3 to 5 days
Protocol: (§1) Cells were treated for three days, at the concentrations indicated. Changes in viability, corresponding to cytotoxicity were detected using an MTS assay, where a decrease in cell viability corresponds to a decrease in A490 nm.
(§2) Cells from the cell line AFCA007 (AF-I) at passage 8 were treated with a range of concentrations of the notch pathway inhibitor L-685,458 (Sigma, MO) for 3 to 5 days. The cytotoxcity of L-685,458 was determined by measuring cell viability by a MTS assay (Promega, WI). Real-time PCR analysis was performed to analyze Hes-1 expression after the treatment. […] No effect on cell viability, as determined by the MTS assay, was observed following L-685,458 treatment of up to 10 μM for 5 days (FIG. 17, panel b).

[2] = system: cell line AFCA007 (AF-I); experiment: Cytotoxicity by MTS cell viability assay; conditions: up to 10 μM for 5 days
Protocol: as §1, §2

[3] = system: cell line AFCA007 Clone A (AF-I); experiment: Differentiation of cells into multiple endocrine lineages (collagen type I/matrigel transwell culture with growth factors); conditions: 14 days, DMEM + 5% FBS
Protocol: Cells from the cell line AFCA007 Clone A (AF-I) at passage 8 were embedded in collagen type I (Becton Dickinson, CA) with 1% growth-factor reduced matrigel matrix (Becton Dickinson), and seeded into 6-well transwell insert at 5×10^5 cells per well. The bottom well was seeded with human aortic endothelial cells passage 6 (Cambrex. MD). Cells were cultured with DMEM medium supplemented with 5% FBS and growth factors, which includes Cyclopamine, bFGF, EGF, BMP4-7, Activin A, Exendin 4, FGF4, all-trans retinoic acid and γ-secretase inhibitors for 14 days. Cultures were fed every other day. […] Treatment of cells with BMPs at high concentration, 50 ng/ml, also up-regualted the GATA4 expression.

[4] = system: cell line AFCA004 (E morphology); experiment: Treatment with PANC-1 conditioned medium in combination with growth factors, real-time PCR; conditions: PANC-1 conditioned medium plus growth factor; for somatostatin expression: after 14 days treatment
Protocol: Amniotic fluid-derived cells were obtained from a single donor and cultured for 12 days in conditioned media that was obtained from cultures of PANC-1 cells. The media was supplemented with the growth factors indicated. The levels of expression of HNF-3 beta and somatostatin were determined by real-time PCR. Human pancreas total RNA was included as a calibrator.
Cells from the cell line AFCA004 (E morphology) at passage 6 were seeded at 5×10^5 cells per well of 6-well culture plates and treated with conditioned medium from confluent PANC-1 cells (ATCC, VA) in combination with different growth factors. Basic FGF, EGF and combination of bFGF and EGF enhanced the expression of HNF-3 beta ˜100 fold over untreated cells. Basic FGF, EGF and BMPs also stimulated somatostatin expression after 14 days treatment (FIG. 16, panels a&b).

Molecule: CC(C)C[C@H](NC(=O)[C@H](Cc1ccccc1)C[C@@H](O)[C@H](Cc1ccccc1)NC(=O)OC(C)(C)C)C(=O)N[C@@H](Cc1ccccc1)C(N)=O [L-685,458]
- Hes-1 expression [1]: dose-dependent inhibitory effect
- cell viability (MTS assay) [2]: No effect
- expression of HNF-3 beta [3]: up-regulated

Molecule: CC1=C(/C=C/C(C)=C/C=C/C(C)=C/C(=O)O)C(C)(C)CCC1 [all-trans retinoic acid, reference compound]
- alpha-fetoprotein (AFP) expression [3]: up-regulation

Molecule: Basic FGF: growth factor combined with PANC-1 conditioned medium
- expression of HNF-3 beta over untreated cells [4]: ~100 fold
- somatostatin expression [4]: stimulated

Molecule: EGF: epidermal growth factor combined with PANC-1 conditioned medium (NSDSECPLSHDGYCLHDGVCMYIEALDKYACNCVVGYIGERCQYRDLKWWELR; Epidermal growth factor; UniProt P01133 971-1023, looked up)
- expression of HNF-3 beta over untreated cells [4]: ~100 fold
- somatostatin expression [4]: stimulated
